In patent publication US20240065270A1 (priority 2018, published 2024):
Entries after “also recorded” stand apart in the source; their conditions may differ.

Assays:
[1] = test system: Arabidopsis wildtype plants; experiment: Growth (root length) of Arabidopsis wildtype plants on media with low-dose herbicides, alone and combined; assay type: in vivo
Protocol: Because Cellulosin has different target as isoxaben, indaziflam and C17. Since the need to avoid the development of herbicide-resistant weeds that is caused by repetitive application of the same herbicide is utmost, we decided to test whether application of Cellulosin together with isoxaben, indaziflam and C17 would make it possible to control the weeds more efficiently with reduced dosage of two herbicides.
Statistically significant differences in right panels were determined by one-way ANOVA test followed by Tukey's multiple comparisons test. Different letters of root length of seedlings indicate significant difference between groups (p<0.05). N=12.
[…] Bar, 1 cm.
Because Cellulosin and isoxaben target CesA at different sites, it allowed us to hypothesize that application of both herbicides at the same time will make it possible to control the weeds with reduced dosage of both herbicides. This should also avoid the development of herbicide-resistant weeds that is caused by repetitive application of the same herbicide. We tested the growth of Arabidopsis at lower dosage of both Cellulosin and isoxaben.

[2] = test system: Arabidopsis mutants ixr1-1, ixr1-2 and ixr2-1; experiment: Growth (root length) of isoxaben resistant mutants ixr1-1, ixr1-2, ixr2-1 on supplemented media; assay type: in vivo; conditions: media supplemented with the compound
From the text: (§1) Recently, we discovered a new cellulose synthase inhibitor Cellulosin and a group of cesa6 mutants that carry mis-sense mutations at the central cytoplasmic region that contains the catalytic motif and are resistant to Cellulosin. In order to test whether Cellulosin has the same mode of action as isoxaben, indaziflam and C17, we first tested the growth of isoxaben resistant mutants on media supplemented with Cellulosin. […] We next tested the growth of our Cellulosin resistant mutants on isoxaben, indaziflam and C17.
Wildtype (WT) Arabidopsis and its mutants ixr1-1, ixr1-2, and ixr2-1 are grown on media supplemented with DMSO (FIGS. 1A-1B), isoxaben (FIGS. 1C-1D) or Cellulosin (FIGS. 1E-1F) and their quantifications on their root length. Arabidopsis mutants ixr1-1, ixr1-2 and ixr2-1 have longer roots in compare with wildtype (Col) on media supplemented with isoxaben. […] Bars: 1 cm

[3] = test system: Cellulosin resistant mutants (cesa6); experiment: Growth (root length) of Cellulosin resistant cesa6 mutants on supplemented media; assay type: in vivo, Arabidopsis; conditions: media supplemented with the compound, compared with DMSO control
From the text: as §1
FIGS. 2E-2G depict quantifications of root length of Cellulosin resistant mutants on media supplemented with isoxaben (FIG. 2E), indaziflam (FIG. 2F), and C17 (FIG. 2G) in comparison with DMSO control, Statistically significant differences in right panels were determined by one-way ANOVA test followed by Tukey's multiple comparisons test. Different letters of root length of seedlings indicate significant difference between groups (p<0.05). Bars: 1 cm.

[4] = test system: plants expressing CesA6 carrying mis-sense mutations at the catalytic site; experiment: Growth of transgenic plants expressing CesA6 with mis-sense mutations at the hypothesized Cellulosin binding sites; assay type: in vivo, Arabidopsis; conditions: cesa6 loss-of-function mutant background; compared with DMSO control
From the text: as §1

| SMILES | plant growth inhibition ([1]; 3.5 nM isoxaben alone, nine days old plants) | plant growth inhibition ([1]; 4 nM isoxaben alone in growth media) | growth / root length of isoxaben resistant mutants compared with wildtype (Col) [2] | sensitivity of Cellulosin resistant mutants in growth (root length) [3] | resistance / sensitivity in growth of plants expressing mutated CesA6 [4] | plant growth inhibition ([1]; 0.06 nM indaziflam alone in growth media) | plant growth inhibition ([1]; 0.25 nM indaziflam alone in growth media) |
| --- | --- | --- | --- | --- | --- | --- | --- |
| CCC(C)(CC)c1cc(NC(=O)c2c(OC)cccc2OC)on1 [isoxaben, N-3[1-ethyl-1-methylpropyl]-5-isoxazolyl-2,6, or dimethoxybenzamide] | Neither 300 nM Cellulosin nor 3.5 nM isoxaben significantly inhibits plant growth; also recorded: does not significantly inhibit plant growth | not inhibited; also recorded: did not inhibit plant growth; also recorded: does not significantly inhibit plant growth | longer roots | Most of our mutants that are resistant to Cellulosin are sensitive; also recorded: only a few of our mutants show reduced sensitivity | do not show resistance; also recorded: they have the same sensitivity |  |  |
| Cc1ccc2c(c1)[C@H](Nc1nc(N)nc(C(C)F)n1)[C@@H](C)C2 (stereo partly drawn) [indaziflam] |  |  |  | Most of our mutants that are resistant to Cellulosin are sensitive; also recorded: only a few of our mutants show reduced sensitivity | do not show resistance; also recorded: they have the same sensitivity | did not inhibit plant growth; also recorded: does not significantly inhibit plant growth | not inhibited |
